The target of data set [1] is Transcription factor p65 (Mus musculus) (UniProt Q04207). In words: Increase in NF-kappaB p65 nuclear translocation in LPS-stimulated mouse peritoneal macrophage at 1000 ug/mL after 24 hrs by nuclear absorbance assay.
Data set [2] is described as follows: Antiinflammatory activity in mouse peritoneal macrophage assessed as decreased LPS-stimulated NO production at 10 to 500 ug/mL after 10 mins using Griess reagent by spectrophotometry. In kind it is functional, Peritoneal macrophage cell.
In data set [3] the target is Transcription factor p65 (Mus musculus) (UniProt Q04207). In words: Inhibition of NF-kappaB p65 nuclear translocation in LPS-stimulated mouse peritoneal macrophage at 0.01 to 10 ug/mL after 24 hrs by nuclear absorbance assay.
The subject of data set [4] is Peritoneal macrophage cell. In words: Antiinflammatory activity in mouse peritoneal macrophage assessed as decrease in LPS-stimulated TNFalpha release at 0.01 to 10 ug/mL after 24 hrs by ELISA relative to control in presence of LPS. In kind it is functional, cell-based.
Data set [5] is described as follows: Antiinflammatory activity in mouse peritoneal macrophage assessed as decreased LPS-stimulated NO production at 0.01 to 1 ug/mL after 10 mins using Griess reagent by spectrophotometry. Type of data set: functional, Peritoneal macrophage cell.
A short description of data set [6]: Antiinflammatory activity in mouse peritoneal macrophage assessed as increase in LPS-stimulated TNFalpha release at 100 to 1000 ug/mL after 24 hrs by ELISA relative to control in presence of LPS. In kind it is functional, Peritoneal macrophage cell.
In data set [7] the target is Transcription factor p65 (Mus musculus) (UniProt Q04207). In words: Inhibition of NF-kappaB p65 nuclear translocation in LPS-stimulated mouse peritoneal macrophage at 10 to 500 ug/mL after 24 hrs by nuclear absorbance assay.
The nature of data set [8]: Pro-inflammatory activity in mouse peritoneal macrophage assessed as increased NO production at 1000 ug/mL after 10 mins using Griess reagent by spectrophotometry in presence of LPS. As to conditions: peritoneal macrophage cell. Type of data set: ADME, cell-based. (In general: The Griess reaction detects nitrite, a stable product of nitric oxide.)
The next data set has as its system Rattus norvegicus. Put plainly: Antiinflammatory activity against Sprague-Dawley rat assessed as inhibition of carrageenan-induced paw edema at 10 mg/kg, ip administered 30 mins prior to carrageenan challenge measured after 5 hrs. Type of data set: functional. As to conditions: route intraperitoneal. A general note: In the carrageenan paw model, swelling and tenderness develop within hours.

The next data set relates to Mus musculus. In words: Antiinflammatory activity against Swiss mouse assessed as inhibition of 12-O-tetradecanoylphorbol acetate-induced ear edema at 1 mg/ear, topically administered measured after 4 hrs of 12-O-tetradecanoylphorbol acetate-challenge. In kind it is functional.

Molecules are shown by their SMILES. Activity calls are given as the source filed them. The calls are words filed in the database; no cut-off is given here.

Transcription factor p65 (Mus musculus), sequence (Q04207 whole entry): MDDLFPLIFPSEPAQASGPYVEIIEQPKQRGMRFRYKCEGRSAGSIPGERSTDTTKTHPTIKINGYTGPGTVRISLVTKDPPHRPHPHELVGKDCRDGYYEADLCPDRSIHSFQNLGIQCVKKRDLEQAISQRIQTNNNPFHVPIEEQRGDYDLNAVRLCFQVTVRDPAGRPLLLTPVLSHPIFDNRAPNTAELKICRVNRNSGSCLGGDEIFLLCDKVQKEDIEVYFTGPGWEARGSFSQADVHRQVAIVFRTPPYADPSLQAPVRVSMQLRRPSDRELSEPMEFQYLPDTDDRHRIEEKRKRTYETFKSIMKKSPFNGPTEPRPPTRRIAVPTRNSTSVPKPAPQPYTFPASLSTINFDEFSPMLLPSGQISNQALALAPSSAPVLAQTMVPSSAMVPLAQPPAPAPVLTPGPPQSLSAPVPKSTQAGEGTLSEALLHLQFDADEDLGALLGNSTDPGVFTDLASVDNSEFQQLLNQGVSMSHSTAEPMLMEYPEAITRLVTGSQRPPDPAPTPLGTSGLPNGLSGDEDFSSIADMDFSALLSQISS

Consider `O=c1cc(-c2ccc(O)cc2)oc2c([C@@H]3O[C@H](CO)[C@@H](O)[C@H](O)[C@H]3O)c(O)c([C@@H]3O[C@H](CO)[C@@H](O)[C@H](O)[C@H]3O)c(O)c12`, for which the result in [1] was inactive. For the same molecule, the “inhibition (INH)” value in data set [2] amounted to 16%; in data set [5], 70%. In addition, the inhibition entry in data set [3] is “Active”. Moreover, the result in [4] was Active. Also, the Activity is reported as 62% in data set [6] and “Toxic” in [8]. The inhibition entry in data set [7] was “inactive”.
What is called inhibition in vivo is the drop in the measured response relative to a control, in per cent. In the case of `COc1ccc2c(c1)c(CC(=O)O)c(C)n2C(=O)c1ccc(Cl)cc1` [INDOMETHACIN], in the data set with Rattus norvegicus, the inhibition in vivo at 10 mg/kg was 38.4%. Also, in the data set on Mus musculus, the “inhibition (INH)” value is reported as 87.3%.

The values are drawn from ChEMBL document CHEMBL1811820, “Vicenin-2, a potential anti-inflammatory constituent of Urtica circularis” (J Nat Prod, 2011).
